# Literature values as cited in patent US20020137779A1, “Use of L-2-oxothiazolidine-4-carboxylic acid for the treatment of type 2 diabetes” (Advanced Biochemicals Inc., priority 2001, published 2002).
# Test system: mice
# Conditions: oral administration at 9.5 mmol/kg in mice; cited from earlier work
smiles,measurement,value
"CC(=O)Nc1ccc(O)cc1 [acetaminophen, reference compound]",mortality,more than 90%
